Source: patent US8686016B2, “Schweinfurthins and uses thereof” (The United States of America, as represented by the …, priority 2009, dated 2014)
Entries after “also recorded” stand apart in the source; their conditions may differ.

Experiments:
Type in all cases: cell-based, mouse
[1] = test system: primary astrocytes from wt, Nf1−/+, and NPcis mice; experiment: XTT cell proliferation assay, primary astrocytes; settings: for inhibition of proliferation: XTT
Procedure: (§1) XTT Cell Proliferation Assay: Cells were seeded into 96-well plates at a density of 2,000 cells/well and allowed to reattach overnight. Cells were treated with SA, synthetic analogs, camptothecin (NCI Chemotherapeutics Repository, Md., USA), or DMSO control at the indicated concentrations continuously for 48 hours followed by assay in the 96-well plate for relative viable cell number using the dye […] (XTT) and a Wallac-Victor 2 plate reader (Perkin-Elmer, Waltham, Mass., USA). Absorbance was determined at 450 nm with 650 nm as a reference reading. Primary astrocytes were additionally assayed at a 96 hour time point.
Cell culture: Primary astrocytes were prepared as described previously (Hawes et al., J. Biomol. Screen, 2008, 13:795-803) from 1 day old neonatal brains collected from wt, Nf1−/+, and Nf1−/+; Trp53−/+ cis mice.

MPNST K14553 cells = experiment: XTT cell proliferation assay, K14553
Procedure: Establishment of NPcis MPNST cell lines: Mice were euthanized by CO2 asphyxiation and tumors were dissected. The tumor volume was measured. The tumor was then cut in half, and ½ fixed in 4% PFA. The other half was rinsed, then cut into 24 pieces of approximately equal size. Each piece was diced with a razor blade and placed in 1 well of a 24 well plate, along with 625 μL of Triple Express (Gibco, Grand Island, N.Y., USA) and 5 μL of recombinant DNAse (Roche, Indianapolis, Ind., USA). Tumors were triturated, then incubated at 37° C. in a 5% CO2 incubator for 2-5 hours, with an additional trituration halfway through incubation time. At the end of the incubation, tumor pieces were triturated again, and suspended cells were transferred to 1.5 mL eppendorf tubes. […] Both plates were monitored for cell growth, grown up to 10 cm plates, and frozen down in 10% DMSO. […]
as §1, with “Absorbance was determined at 450 nm with 650 nm as a reference reading. Primary astrocytes were additionally assayed at a 96 hour time point.” left out

KR158 cells = experiment: MultiTox-Fluor Multiplex Cytotoxicity Assay; settings: 48 hrs continuous treatment
Procedure: Cytotoxicity Assay: The MultiTox-Fluor Multiplex Cytotoxicity Assay (Promega, Madison, Wis., USA) was used according to manufacturer instructions. Briefly, KR158 cells were harvested and seeded 2,500 cells/well in a black walled 96-well plate (Corning, Lowell, Mass., USA). Cells were treated with SA or DMSO control at the indicated concentrations continuously for 48 hours followed by addition of the fluorescent substrates from the assay kit. The GF-AFC Substrate enters live cells where it is cleaved by the live-cell protease to release AFC. The bis-AAF-R110 substrate cannot enter live cells but instead is be cleaved by the dead-cell protease activity to release R110.

Question: For `CC(C)=CCC/C(C)=C/Cc1c(O)cc(/C=C/c2cc(O)c3c(c2)C[C@@H]2C(C)(C)[C@H](O)[C@H](O)C[C@@]2(C)O3)cc1O` [SA, Schweinfurthin A], which inhibition of proliferation ([1]; 48 hours) is on record?
Answer: does not inhibit; also recorded: are not; also recorded: resistant

Question: And the inhibition of proliferation ([1]; 96 hrs continuous treatment)?
Answer: resistant

Question: And the growth inhibition ([1]; SA concentrations several log-fold higher than the GI50 for KR158)?
Answer: ≤ 40%

Question: And the “inhibition of Nf1 heterozygous cells” value ([1]; at concentrations of 1 μM)?
Answer: no inhibition

Question: And the “inhibition of proliferation (percent viability versus control)” value (MPNST K14553 cells)?
Answer: dose dependent inhibition of proliferation; also recorded: sensitive

Question: What about the “cell killing (dead-cell protease activity)” value (KR158 cells) of the same compound?
Answer: dose dependent increase of dead-cell protease activity; also recorded: dose dependent increase in cell killing
